# Reference: article PMC3145798, “The Extracytoplasmic Domain of the Mycobacterium tuberculosis Ser/Thr Kinase PknB Binds Specific Muropeptides and Is Required for PknB Localization” (PLoS Pathogens, 2011)
# Entries after “also recorded” stand apart in the source; their conditions may differ. *1 amine or outer side, *2 acyl side, *3 side chain or, on linkers, in order; H or OH if unused. Where a SMILES comes first, the peptide text is derived from it. [ ]: non-standard residue; d: D form. Mur = C[C@@H](O[C@H]1[C@H](O)[C@@H](CO)OC(O)[C@@H]1N[*:1])C(=O)[*:2]; d(isoGln) = NC(=O)[C@@H](CCC(=O)[*:2])N[*:1]
# Tests used:
# [1] = biological target: T1, extracytoplasmic domain of M. tuberculosis PknB (ED-PknB, PASTA domains) (Mycobacterium tuberculosis, UniProt P9WI81); assay: Surface plasmon resonance (Biacore) binding of synthetic muropeptides to immobilized ED-PknB; design: ka1: unit not given here; settings: for Kd / ka1 / ka2 / kd1 / kd2: two-state binding model; for ka1 / ka2 / kd1 / kd2: 25°C; for decrease in binding compared to compound 6a: ratio of affinities relative to 6a
# T1 construct: GST (N, cleaved yes); made in house; host or cells: Escherichia coli BL21 (DE3)
# T1 sequence (P9WI81 354-626): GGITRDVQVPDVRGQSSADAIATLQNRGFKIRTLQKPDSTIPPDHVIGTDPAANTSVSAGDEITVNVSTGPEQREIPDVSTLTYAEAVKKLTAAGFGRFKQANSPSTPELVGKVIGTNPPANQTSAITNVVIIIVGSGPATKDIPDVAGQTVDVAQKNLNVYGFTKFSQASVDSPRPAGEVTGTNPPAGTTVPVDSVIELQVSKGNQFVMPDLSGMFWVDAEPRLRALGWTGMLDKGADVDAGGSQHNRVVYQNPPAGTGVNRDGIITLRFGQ
# [2] = system: dormant M. tuberculosis H37Rv cells; assay: Dormancy and resuscitation assay (most probable number); format: cell-based, Mycobacterium tuberculosis H37Rv; settings: for Fold increase in viable cell number relative to cultures grown in Sauton's medium without additive: muropeptide at 10 times the KD of 6c, spent medium 50%, MPN after 2 months at 37°C; for increase in viability relative to cells in fresh medium alone: two independent experiments (6 or 9 months hypoxic), experiment not assigned, most probable number analysis
# [3] = SPR Biacore T100, ED-PknB on CM-5 chip (5,000 RU), HBS-EP pH 7.4, 25°C, Table 1 and text
# [4] = Table S1, SPR, ED-PknB on CM-5 chip (5,000 RU)
# [5] = Experiment 1: 6 month old dormant culture
# [6] = Experiment 2: 9 month old dormant culture
Compound,"Kd [1, 3]","Kd [1, 4]",binding to ED-PknB in words ([1]; SPR),"ka1 ([1]; Table S1, SPR)","ka2 ([1]; Table S1, SPR)","kd1 ([1]; Table S1, SPR)","kd2 ([1]; Table S1, SPR)",also measured
CC(=O)N[C@H]1C(O)O[C@H](CO)[C@@H](O)[C@@H]1O[C@H](C)C(=O)N[C@@H](C)C(=O)N[C@H](CCC(=O)N[C@@H](CCCCN)C(=O)N[C@H](C)C(=O)NCC(N)=O)C(N)=O (some centres unmarked) [MPP-Lys (Gly) 3b] (Ac-[Mur]A[d(isoGln)]K[dA]G-NH2),> 500 µM,> 500 µM,–,–,–,–,–,"Fold increase in viable cell number relative to cultures grown in Sauton's medium without additive [2, 5]: 0.9 fold; Fold increase in viable cell number relative to cultures grown in Sauton's medium without additive [2, 6]: 1 fold; increase in viability relative to cells in fresh medium alone [2]: No increase in viability"
CC(=O)N[C@H]1C(O)O[C@H](CO)[C@@H](O)[C@@H]1O[C@H](C)C(=O)N[C@@H](C)C(=O)N[C@H](CCC(=O)N[C@@H](CCCCN)C(N)=O)C(N)=O (some centres unmarked) [MTP-Lys (amide) 1],> 500 µM,> 500 µM,–,–,–,–,–,–
CC(=O)N[C@H]1C(O)O[C@H](CO)[C@@H](O)[C@@H]1O[C@H](C)C(=O)N[C@@H](C)C(=O)N[C@H](CCC(=O)N[C@@H](CCC[C@@H](N)C(=O)O)C(=O)N[C@H](C)C(N)=O)C(N)=O (some centres unmarked) [MTrP-DAP (amide/acid) 6a],–,–,exhibited the highest affinity,3451,1.83 10^-3 s^-1,100.7 10^-3 s^-1,1.4 10^-3 s^-1,–
CC(=O)N[C@H]1C(O)O[C@H](CO)[C@@H](O)[C@@H]1O[C@H](C)C(=O)N[C@@H](C)C(=O)N[C@H](CCC(=O)N[C@@H](CCC[C@@H](N)C(N)=O)C(=O)N[C@H](C)C(N)=O)C(N)=O (some centres unmarked) [MTrP-DAP (amide/amide) 6c],–,14.9 µM,–,342.8,41.5 10^-3 s^-1,57.8 10^-3 s^-1,4.02 10^-3 s^-1,"Fold increase in viable cell number relative to cultures grown in Sauton's medium without additive [2, 5]: 9 fold; Fold increase in viable cell number relative to cultures grown in Sauton's medium without additive [2, 6]: 3 fold; increase in viability relative to cells in fresh medium alone [2]: three; also recorded: nine-fold"
CC(=O)N[C@@H](C)C(=O)N[C@H](CCC(=O)N[C@@H](CCCC(N)C(=O)O)C(=O)N[C@H](C)C(=O)N[C@H](C)C(N)=O)C(N)=O (some centres unmarked) [Peptide 8 (amide/amide)],> 500 µM,> 500 µM,Neither compound showed significant interaction,–,–,–,–,–
CC(=O)N[C@H]1C(O)O[C@H](CO)[C@@H](O)[C@@H]1O[C@H](C)C(=O)N[C@@H](C)C(=O)N[C@H](CCC(=O)N[C@@H](CCCC(N)C(N)=O)C(=O)N[C@H](C)C(N)=O)C(=O)O (some centres unmarked) [MTrP-DAP (acid/amide) 6b],> 100 µM,> 100 µM,did not show measurable binding,–,–,–,–,–
CC(=O)NCCCC[C@H](NC(=O)CC[C@@H](NC(=O)[C@H](C)NC(=O)[C@@H](C)O[C@H]1[C@H](O)[C@@H](CO)OC(O)[C@@H]1NC(C)=O)C(N)=O)C(=O)N[C@H](C)C(N)=O (some centres unmarked) [MTrP-Lys (amide) NHAc 2b],> 500 µM,> 500 µM,–,–,–,–,–,–
CC(=O)N[C@H]1C(O)O[C@H](CO)[C@@H](O)[C@@H]1O[C@H](C)C(=O)N[C@@H](C)C(=O)N[C@H](CCC(=O)N[C@@H](CCC[C@@H](N)C(=O)O)C(=O)N[C@H](C)C(N)=O)C(=O)O (some centres unmarked) [MTrP-DAP (acid/acid) 6d],–,–,–,1931,2.0 10^-3 s^-1,168.7 10^-3 s^-1,3.2 10^-3 s^-1,decrease in binding compared to compound 6a ([1]; SPR): four-fold
C[C@H](N)C(=O)N[C@H](CCC(=O)N[C@@H](CCCCN)C(=O)N[C@H](C)C(=O)N[C@H](C)C(N)=O)C(N)=O [Peptide 4 (amide)] (H-A[d(isoGln)]K[dA][dA]-NH2; N-terminus assumed),–,–,Neither compound showed significant interaction,–,–,–,–,–
CC(=O)N[C@H]1C(O)O[C@H](CO)[C@@H](O)[C@@H]1O[C@H](C)C(=O)N[C@@H](C)C(=O)N[C@H](CCC(=O)N[C@@H](CCC[C@@H](N)C(=O)O)C(N)=O)C(N)=O (some centres unmarked) [MTP-DAP (amide/acid) 5],–,–,–,5577,1.64 10^-3 s^-1,172.9 10^-3 s^-1,3.86 10^-3 s^-1,–
CC(=O)N[C@H]1C(O)O[C@H](CO)[C@@H](O)[C@@H]1O[C@H](C)C(=O)N[C@@H](C)C(=O)N[C@H](CCC(=O)N[C@@H](CCCCN)C(=O)N[C@H](C)C(=O)N[C@H](C)C(N)=O)C(N)=O (stereo partly drawn) [MPP-Lys (D-Ala) 3a] (Ac-[Mur]A[d(isoGln)]K[dA][dA]-NH2),> 500 µM,> 500 µM,–,–,–,–,–,–
CC(=O)N[C@H]1C(O)O[C@H](CO)[C@@H](O)[C@@H]1O[C@H](C)C(=O)N[C@@H](C)C(=O)N[C@H](CCC(=O)N[C@@H](CCC[C@@H](N)C(=O)O)C(=O)N[C@H](C)C(=O)N[C@H](C)C(N)=O)C(N)=O (some centres unmarked) [MPP-DAP (amide/acid) 7],–,–,–,4316,1.4 10^-3 s^-1,161.5 10^-3 s^-1,2.8 10^-3 s^-1,decrease in binding compared to compound 6a ([1]; SPR): about two-fold
CC(=O)N[C@H](CCC[C@H](NC(=O)CC[C@@H](NC(=O)[C@H](C)NC(=O)[C@@H](C)O[C@H]1[C@H](O)[C@@H](CO)OC(O)[C@@H]1NC(C)=O)C(N)=O)C(=O)N[C@H](C)C(N)=O)C(=O)O (some centres unmarked) [MTrP-DAP(amide/acid)NHAc 6e],–,–,–,354.2,6.6 10^-3 s^-1,106 10^-3 s^-1,2.2 10^-3 s^-1,decrease in binding compared to compound 6a ([1]; SPR): six-fold
